Consider 10 compounds from ChEMBL document CHEMBL1201862, “PubChem BioAssay data set” (2004).

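Tested at 5 concentrations; 48 h exposure; 96-well plates; endpoints linearly interpolated, else capped at highest concentration. GI50: concentration for 50% inhibition of growth.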 Active and inactive are the calls of the source. Cut-off read from the data, not from the text of the source: active = GI50 up to about 1.1 µM and inactive = higher. Peptide text beside a SMILES is read from it. * marks the point of attachment. Cbz = O=C(OCc1ccccc1)*

What all share (assay): growth of human tumour cells (NCI), 48 h
Assay [1] concerns M14.
In assay [2] the test system is CCRF-CEM.
The subject of assay [3] is HCT-15.
Assay [4] deals with IGROV-1.
For assay [5], the system named is OVCAR-5.
The test system of assay [6] is SNB-75.
The subject of assay [7] is MDA-N.
The subject of assay [8] is HCT-116.
The test system of assay [9] is T47D.
Assay [10] deals with CAKI-1.
Assay [11] concerns SK-OV-3.
In assay [12] the test system is DU-145.
Assay [13] concerns HCC 2998.
Assay [14] relates to A498.
For assay [15], the system named is MDA-MB-435.
Assay [16] deals with NCI-H226.
The test system of assay [17] is MDA-MB-231.
The subject of assay [18] is TK-10.
Assay [19] deals with K562.

Take `CC(Cc1ccc(O)c(O)c1)C(C)Cc1ccc(O)c(O)c1` (stereo not given) [NORDIHYDROGUAIARETIC ACID]: the GI50 in assay [1] was 16.5 µM (inactive); in assay [2], 4.38 µM (inactive); in [3] it was more than 38.9 µM; in assay [4] it was 16.9 µM (inactive); in assay [5], 21.2 µM (inactive); in assay [6], 19.8 µM (inactive). Moreover, the GI50 in [7] is 10.2 µM (inactive); in assay [8], 17.3 µM (inactive); in [9] it was 18.4 µM (inactive); in assay [10] it was 11.4 µM (inactive); in assay [11], 21.5 µM (inactive); in assay [12], 18.8 µM (inactive). Also, the GI50 in assay [13] was 19.1 µM (inactive); in assay [14] it was 37 µM (inactive); in assay [15], 13.5 µM (inactive); in [16] it was 22.5 µM (inactive); in [17], > 39.1 µM (inactive); in assay [18] it was 23.6 µM (inactive). The GI50 in [19] was 25.4 µM (inactive).

With `O=C(O)CCC(NC(=O)OCc1ccccc1)C(=O)NC(Cc1c[nH]cn1)C(=O)O` (stereo not drawn) (Cbz-Glu-His-OH; configuration not given here), the GI50 in [1] is > 100 µM (inactive); in [2] it was > 100 µM (inactive); in assay [3], more than 100 µM; in assay [4], > 100 µM (inactive); in assay [5], > 100 µM (inactive); in assay [6], > 100 µM (inactive). For the same compound, the GI50 in assay [7], in assay [8], in assay [9], in assay [10], in [11] and in assay [12] was > 100 µM (inactive) in each case. The GI50 in assay [13] was > 100 µM (inactive); in [14], > 100 µM (inactive); in [15] it was > 100 µM (inactive); in assay [16] it was > 100 µM (inactive); in assay [17], 37.1 µM (inactive); in [18], > 100 µM (inactive). For the same compound, the GI50 in assay [19] is > 100 µM (inactive).

On to `Cc1ccc(-c2nnc(-c3ccc4ccccc4c3)o2)cc1`, for which the GI50 in [1] is 12.3 µM (inactive); in assay [2] it was 3.55 µM (inactive); in assay [3], more than 96.8 µM; in assay [4], > 91.2 µM (inactive); in [5], > 61.8 µM (inactive); in [6], 6.7 µM (inactive). The GI50 in assay [7] is 17.5 µM (inactive); in [8] it was 23.6 µM (inactive); in assay [9], 19.2 µM (inactive); in [10], 5.19 µM (inactive); in assay [11], 56.2 µM (inactive); in [12], 18.2 µM (inactive). The GI50 is > 100 µM (inactive) in assay [13]; > 100 µM (inactive) in [14]; 8.11 µM (inactive) in assay [15]; 25.2 µM (inactive) in assay [16]; 25.8 µM (inactive) in assay [17]; 7.94 µM (inactive) in assay [18]. Besides, in assay [19], the GI50 is 7.26 µM (inactive).

In the case of `CC#CCCN(CC#N)Cc1ccccc1`, the GI50 in assay [1] is > 100 µM (inactive); in assay [2], > 100 µM (inactive); in assay [3], more than 100 µM; in [4], > 100 µM (inactive); in assay [5], > 100 µM (inactive); in assay [6], > 100 µM (inactive). Besides, the GI50 in assay [7], in [8], in assay [9], in assay [10], in assay [11] and in assay [12] was > 100 µM (inactive) each time. Further, the GI50 in [13] was > 100 µM (inactive); in assay [14], 20.4 µM (inactive); in assay [15], > 100 µM (inactive); in assay [16], > 100 µM (inactive); in assay [17], > 100 µM (inactive); in assay [18] it was > 100 µM (inactive). The GI50 in assay [19] was > 100 µM (inactive).

As to `CC(CO)[C@H]1OC(=O)C=C2[C@@]13O[C@@H]3[C@H]1OC(=O)[C@@]3(C)[C@H]4O[C@H]4C[C@@]2(C)[C@@H]13` (stereo not given in full), the GI50 was 1.19 µM (inactive) in [1]; 0.5 µM (active) in [2]; 0.914 µM in assay [3]; 1.5 µM (inactive) in assay [4]; 3.78 µM (inactive) in assay [5]; 0.738 µM (active) in assay [6]. The GI50 was 1.32 µM (inactive) in assay [7]; 1.07 µM (active) in [8]; 2.92 µM (inactive) in assay [9]; 1.84 µM (inactive) in assay [10]; 3.02 µM (inactive) in assay [11]; 1.39 µM (inactive) in [12]. The GI50 is 1.65 µM (inactive) in assay [13]; 4.1 µM (inactive) in assay [14]; 1.55 µM (inactive) in assay [15]; 1.27 µM (inactive) in assay [16]; 2.51 µM (inactive) in [17]; 2.07 µM (inactive) in [18]. Moreover, the GI50 in [19] was 1.17 µM (inactive).

For `CN1N=C(c2ccccc2)C(C(c2ccccc2[N+](=O)[O-])C2C(=O)N(C)N=C2c2ccccc2)C1=O` (stereo not given), the GI50 in [1] is > 100 µM (inactive); in assay [2] it was 26.8 µM (inactive); in [3], 42.6 µM; in assay [4], 25.1 µM (inactive); in assay [5], > 100 µM (inactive); in assay [6], > 87.1 µM (inactive). Moreover, the GI50 is > 100 µM (inactive) in assay [7]; > 78.7 µM (inactive) in assay [8]; > 100 µM (inactive) in assay [9]; > 100 µM (inactive) in assay [10]; > 100 µM (inactive) in assay [11]; > 100 µM (inactive) in [12]. The GI50 in assay [13] is 53 µM (inactive); in assay [14], > 81.8 µM (inactive); in [15], > 100 µM (inactive); in assay [16], > 51.1 µM (inactive); in assay [17] it was > 100 µM (inactive); in assay [18] it was > 100 µM (inactive). For the same compound, the GI50 in [19] is 33.9 µM (inactive).

In the case of `COc1ccccc1/C=C/c1cnccn1`, the GI50 in [1] is > 10 µM (inactive); in assay [2], > 10 µM (inactive); in [3], more than 10 µM; in assay [4] it was > 10 µM (inactive); in [5], > 10 µM (inactive); in assay [6] it was > 10 µM (inactive). In addition, the GI50 in assay [7], in assay [8], in assay [9], in assay [10], in assay [11] and in [12] was > 10 µM (inactive) each time. Moreover, the GI50 in [13], in [14], in assay [15], in assay [16], in assay [17] and in [18] was > 10 µM (inactive) each time. In addition, the GI50 in assay [19] is > 10 µM (inactive).

As for `C[C@]12CC[C@@H]3c4ccc(O)cc4CC[C@H]3[C@@H]1C/C(=C\c1ccc([N+](=O)[O-])cc1)C2=O`, the GI50 in [1] is 53.3 µM (inactive); in assay [2], 53.7 µM (inactive); in assay [3], 67 µM; in assay [4] it was > 100 µM (inactive); in assay [5], > 100 µM (inactive); in [6] it was 50.7 µM (inactive). Further, the GI50 in [7] is 49.5 µM (inactive); in [8] it was 37.7 µM (inactive); in [9], 40 µM (inactive); in [10] it was > 100 µM (inactive); in [11], > 100 µM (inactive); in [12], 50 µM (inactive). Besides, the GI50 in assay [13] was 73.3 µM (inactive); in assay [14], > 100 µM (inactive); in assay [15], 37.8 µM (inactive); in [16] it was 71.6 µM (inactive); in [17] it was 67.6 µM (inactive); in assay [18] it was 80 µM (inactive). For the same compound, the GI50 in assay [19] is 99.8 µM (inactive).

Regarding `O=C1C2C=CC1C1C(=O)OC(=O)C21` (stereo not given), the GI50 in [1] was > 100 µM (inactive); in assay [2], > 100 µM (inactive); in assay [3] it was more than 100 µM; in assay [4] it was > 100 µM (inactive); in [5] it was > 100 µM (inactive); in assay [6], > 100 µM (inactive). The GI50 in [7], in assay [8], in assay [9], in assay [10], in [11] and in assay [12] was > 100 µM (inactive) in each case. Moreover, the GI50 in assay [13], in [14], in assay [15], in assay [16], in [17] and in assay [18] was > 100 µM (inactive) in each case. For the same compound, in assay [19], the GI50 is > 100 µM (inactive).

As to `CC1=C(/C=C/C(C)=C/C=C/C(C)=C/C(=O)Nc2ccc(O)cc2)C(C)(C)CCC1` [FENRETINIDE], the GI50 in [1] was 4.92 µM (inactive); in [2] it was 0.057 µM (active); in assay [3], 5.92 µM; in assay [4], 2.02 µM (inactive); in assay [5], 10.6 µM (inactive); in assay [6], 7.03 µM (inactive). Also, the GI50 in [7] was 2.75 µM (inactive); in assay [8] it was 4.06 µM (inactive); in assay [9], 2.7 µM (inactive); in assay [10] it was 5.06 µM (inactive); in [11], 6.68 µM (inactive); in assay [12], 7.6 µM (inactive). The GI50 in assay [13] is 4.16 µM (inactive); in assay [14], 4.73 µM (inactive); in [15], 3.09 µM (inactive); in [16] it was 5.13 µM (inactive); in assay [17], 2.95 µM (inactive); in [18] it was 16.1 µM (inactive). Besides, in [19], the GI50 is 2.69 µM (inactive).
